We go through 1 compound from patent publication US20210069295A1, “GALECTINS CONTROL MTOR IN RESPONSE TO ENDOMEMBRANE DAMAGE AND PROVIDE A MECHANISM AND TARGET FOR THE TREATMENT OF AUTOPHAGY-RELATED DISEASES” (STC. UNM, priority 2017, published 2021).

Peptide text beside a SMILES is read from it.

This test deals with Gal8 and Gal9. As to the kind of experiment: Galectin puncta formation by high-content microscopy in HeLa cells. Conditions: HeLa cells overexpressing GFP-Gal8 or GFP-Gal9, 100 μM, 1 h full medium. In kind it is cell-based. As to the method: (A) Analysis of the puncta formation of galectins in response to GPN. HeLa cells overexpressing YFP-fused with the indicated galectins were treated with 100 μM GPN or without (Ctrl) in full medium for 1 h and galectin puncta were quantified by HC. […] White masks, algorithm defined cell boundaries (primary objects); green masks, computer-identified galectins puncta (target objects). Data, means±SEM, n≥3 independent experiments (500 primary objects counted per well; ≥5 wells/sample per each experiment); *p<0.05, **p<0.01, † p≥0.05, ANOVA. (B) Immunoprecipitation analysis of the interactions between galectins and mTOR or RagA GTPase. HEK293T cells overexpressing FLAG-tagged galectins were subjected to anti-FLAG immunoprecipitation followed by immunoblotting for endogenous mTOR or RagA. (C) Immunoprecipitation analysis of interactions between Gal8 and mTOR protein complexes in response to GPN treatment. […] Biotinylated proteins from HEK293T cell expressing APEX2-vector or APEX2-Gal8, after GPN and biotin phenol (BP) treatment were affinity-enriched by binding to streptavidin-beads, and samples were analyzed by immunoblotting analysis for endogenous RagA, p14, mTOR or Raptor. […]
(A) HC analysis of the puncta of galectins in response to chloroquine, Bafilomycin A1 and GPN. HeLa cells overexpressing GFP-Gal8 or GFP-Gal9 were treated with 100 μM chloroquine (CQ), […] (BAF) or 100 μM GPN in full medium for 1 h, and the puncta of GFP-Gal8 or GFP-Gal9 were quantified by HC. […] Data, means±SEM, n≥3 independent experiments (500 primary objects counted per well; ≥5 wells/sample per each experiment), † p≥0.05, **p<0.01, ANOVA. […] HeLa cells expressing GFP-Gal8 were treated with 100 μM GPN in full medium for 1 h, and the overlap between GFP-Gal8 and LAMP2 were quantified by HC. […] Data, means±SEM, n≥3 independent experiments (500 primary objects counted per well; ≥5 wells/sample per each experiment), **p<0.01, ANOVA. […]

`NCC(=O)N[C@@H](Cc1ccccc1)C(=O)Nc1ccc2ccccc2c1` [GPN, glycyl-L-phenylalanine 2-naphththylamide] (HELM PEPTIDE1{G.F.[c1ccc2cc(N[*:1])ccc2c1]}$$$$V2.0): the “Gal8 and Gal9 puncta formation” value is given as “formed puncta”.
